Measurements: patent US11872236B2, “Pharmacological agents for treating ocular diseases” (CALASIA PHARMACEUTICALS, INC., priority 2018, dated 2024)
Where two headings read alike, the source gives them in different places.

Assays:
[1] = target: T1, alpha-A crystalline (Homo sapiens, UniProt P02489); assay: Ca+2 and UVC induced aggregation of alpha-A crystalline (absorbance screen); assay type: biochemical; details: for EC50: preventing Ca+2 and UVC induced aggregation of alpha-A crystalline; for inhibition at 200 µM: read-out: Percent protection (at 200 μM);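 on all read-outs here: recombinant human alpha-A crystallin (500 µg/ml) preincubated 30 min with compound, then UV-induced aggregation tracked by absorbance at time points from 0 to 120 min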
T1 sequence (P02489 1-173): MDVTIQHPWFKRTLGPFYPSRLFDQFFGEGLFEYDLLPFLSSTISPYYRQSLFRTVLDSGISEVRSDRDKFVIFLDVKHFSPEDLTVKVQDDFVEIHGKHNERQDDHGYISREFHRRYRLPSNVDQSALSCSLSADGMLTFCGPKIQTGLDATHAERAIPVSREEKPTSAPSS

[2] = system: SRA 01/04 HLE cells; assay: Cell-based UV protection, viability by Alamar blue; design: species or system human; details: Table 5;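 further: cells pretreated with compound at a range of concentrations before UV irradiation, viability read 24 h after exposure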
[3] = system: human lens epithelial (HLE) cells; assay: Cell-based heat protection, viability by Alamar blue; design: Cell Heat % protection: concentration or dose not given beside the values; details: for Cell Heat % protection: Table 8
Method: Alamar blue was used for assessing viability. Mean±SEM of the measurements are shown.
Cell-based using assays using human lens epithelial cell lines SRA 01/04 and B3 were also performed. The cells were exposed to UV or heat and cell viability assessed 24 hours post-exposure by Alamar blue staining. In another experiment, SRA 01/04 cells were pre-incubated with varying concentrations of compounds two hours prior to UV exposure. Relative protection was measured as percent viability compared to vehicle control 24 hours following UV exposure. Mean±SEM of the measurements are shown.

[4] = 200 μM, Ca+2 and UVC induced aggregation of alpha-A crystalline

N[C@@H](Cc1ccc(O)c(O)c1)C(=O)O [CAP1042]
EC50 [1]: 860 µM

CNC[C@H](O)c1ccc(O)c(O)c1 [CAP1043]
inhibition at 200 µM [1, 4]: -5%

Oc1ccc(C2CNCCc3c2cc(O)c(O)c3Cl)cc1 (stereo not drawn) [CAP1044]
inhibition at 200 µM [1, 4]: -16%

Oc1cc(O)c2c(c1)O[C@H](c1ccc(O)c(O)c1)[C@@H](O)C2 [CAP1047]
inhibition at 200 µM [1, 4]: -17%

Oc1cc(O)c2c(c1)O[C@H](c1ccc(O)c(O)c1)[C@H](O)C2 [CAP1049]
Percent protection (at 200 μM) [1, 4]: −5%

CC(CCc1ccc(O)cc1)NCCc1ccc(O)c(O)c1 (stereo not drawn) [CAP1051]
inhibition at 200 µM [1]: -28%

O=C(O)[C@H]1OC(Oc2cc3oc(-c4ccccc4)cc(=O)c3c(O)c2O)[C@H](O)[C@@H](O)[C@@H]1O (stereo partly drawn) [CAP1052]
inhibition at 200 µM [1, 4]: 3%

O=c1c(O)c(-c2ccc(O)c(O)c2)oc2cc(O)ccc12 [CAP1053]
inhibition at 200 µM [1, 4]: 52%
EC50 [1]: 461 µM

C[C@@](Cc1ccc(O)c(O)c1)(NN)C(=O)O [CAP1055]
inhibition at 200 µM [1, 4]: 1%

C[C@](N)(Cc1ccc(O)c(O)c1)C(=O)O [CAP1056]
inhibition at 200 µM [1, 4]: -5%

O=C(NCCc1ccc(O)c(O)c1)C12CC3CC(CC(C3)C1)C2 [CAP1057]
inhibition at 200 µM [1, 4]: -8%

COc1cc(CC2NCCc3cc(O)c(O)cc32)cc(OC)c1OC (stereo not drawn) [CAP1058]
inhibition at 200 µM [1, 4]: -27%

O=C1c2ccccc2C(=O)c2c1cc(S(=O)(=O)O)c(O)c2O [CAP1072]
inhibition at 200 µM [1, 4]: 53%

COc1cc(/C=N/c2cccc(C)n2)cc([N+](=O)[O-])c1O [CAP1110]
inhibition at 200 µM [1, 4]: 19%

COc1cc(CNc2cccc(C)n2)cc([N+](=O)[O-])c1O [CAP1112]
inhibition at 200 µM [1, 4]: 12%

CCN(CC)C(=O)/C(C#N)=C/c1cc(O)c(O)c([N+](=O)[O-])c1 [CAP1159]
inhibition at 200 µM [1, 4]: 27%
EC50 [1]: 313 µM

O=C(OC[C@H]1OC(OC(=O)c2cc(O)c(O)c(OC(=O)c3cc(O)c(O)c(O)c3)c2)[C@H](OC(=O)c2cc(O)c(O)c(OC(=O)c3cc(O)c(O)c(O)c3)c2)[C@@H](OC(=O)c2cc(O)c(O)c(OC(=O)c3cc(O)c(O)c(O)c3)c2)[C@@H]1OC(=O)c1cc(O)c(O)c(OC(=O)c2cc(O)c(O)c(O)c2)c1)c1cc(O)c(O)c(OC(=O)c2cc(O)c(O)c(O)c2)c1 (stereo partly drawn) [CAP1176]
inhibition at 200 µM [1, 4]: 76%

Oc1ccc(CCNCCCCCCNCCc2ccccc2)cc1O [CAP1215]
inhibition at 200 µM [1, 4]: -47%

O=C1c2ccc(S(=O)(=O)O)c(O)c2C(=O)c2ccc(S(=O)(=O)O)c(O)c21 [CAP1219]
inhibition at 200 µM [1, 4]: -5%

O=C1c2ccccc2C(=O)c2c1ccc(S(=O)(=O)O)c2O [CAP1220]
inhibition at 200 µM [1, 4]: 20%

COc1ccc(CCNC(=O)C2CCCCC2)cc1OC [CAP1222]
inhibition at 200 µM [1, 4]: 38%

CCC(CC)C(=O)NCCc1ccc(OC)c(OC)c1 [CAP1223]
inhibition at 200 µM [1, 4]: 29%

COc1ccc(CCNC(=O)CCC2CCCCC2)cc1OC [CAP1224]
Percent protection (at 200 μM) [1, 4]: 46%
EC50 [1]: 880 µM

COc1ccc(CCNC(=O)CCCCC(=O)NCCc2ccc(OC)c(OC)c2)cc1OC [CAP1225]
inhibition at 200 µM [1, 4]: 50%

COc1ccc(CCNC(=O)C2CCC2)cc1OC [CAP1226, N-[2-(3,4-dimethoxyphenyl)ethyl]cyclobutanecarboxamide]
inhibition at 200 µM [1, 4]: 72%
EC50 [1]: 46.2 µM

COc1ccc(CCNC(=O)C2CCN(C(=O)Cc3ccccc3)CC2)cc1OC [CAP1227, N-[2-(3,4-dimethoxyphenyl)ethyl]-1(phenylacetyl)-4-piperidinecarboxamide]
inhibition at 200 µM [1, 4]: 46%
EC50 [1]: 288 µM

COc1ccc(CCNC(=O)CCCC(=O)NCCc2ccc(OC)c(OC)c2)cc1OC [CAP1228, N,N′-bis[2-(3,4-dimethoxyphenyl)ethyl]pentanediamide]
Percent protection (at 200 μM) [1, 4]: 60%

COc1ccc(CCNC(=O)CCCC(=O)NCOc2ccc(OC)cc2)cc1 [CAP1229]
inhibition at 200 µM [1, 4]: 22%

COc1ccc(CCNC(=O)C2CC2)cc1OC [CAP1230, N-[2-(3,4-dimethoxyphenyl)ethyl]cyclopropanecarboxamide]
inhibition at 200 µM [1, 4]: 18%

COc1ccc(CCNC(=O)C2CCCC2)cc1OC [CAP1231, N-[2-(3,4-dimethoxyphenyl)ethyl]cyclopentanecarboxamide]
inhibition at 200 µM [1, 4]: 51%

COc1ccc(CCNC(=O)C2CCN(C(=O)c3ccc(F)cc3)CC2)cc1OC [CAP1232]
inhibition at 200 µM [1, 4]: 41%

COc1ccc(CCNC(=O)CCCC2CCCC2)cc1OC [CAP1236]
inhibition at 200 µM [1, 4]: -2%

O=C(CC1CCC1)NCCc1ccc(O)c(O)c1 [CAP1239]
inhibition at 200 µM [1, 4]: 23%

CC1CCC(NC(C)Cc2ccc(O)c(O)c2)CC1 (stereo not drawn) [CAP1240]
inhibition at 200 µM [1]: -13%

CCCCCCCCCCCCCCCCCC(=O)NCCc1ccc(O)c(O)c1 [CAP1241]
inhibition at 200 µM [1, 4]: 135%

CC(CCc1ccc(O)cc1)NCCc1ccc(O)c(O)c1 (stereo not drawn) [CAP1264]
Percent protection (at 200 μM) [1, 4]: 3%

NCCc1ccc(O)c(O)c1 [CAP1265]
inhibition at 200 µM [1, 4]: -6%

CC(CCc1ccc(O)cc1)NCCc1ccc(O)c(O)c1 (stereo not drawn) [CAP1266]
Percent protection (at 200 μM) [1, 4]: −14%

COc1ccc(CCNC(=O)CCC2CCCCC2)cc1OC [CAP1274]
inhibition at 200 µM [1, 4]: 55%

COc1ccc(CCNC(=O)CCCC(=O)NCCc2ccc(OC)c(OC)c2)cc1OC [CAP1278]
Percent protection (at 200 μM) [1, 4]: 38%

COc1ccc(CC(=O)NC2CCCCCCCCCCC2)cc1OC [CAP1279]
inhibition at 200 µM [1, 4]: 5%

O=C(NCCc1ccccc1)C1CCC(C(=O)NCCc2ccccc2)CC1 (stereo not drawn) [CAP1280]
inhibition at 200 µM [1, 4]: 44%
EC50 [1]: 193 µM

COc1ccc(CCNC(=O)CC23CC4CC(CC(C4)C2)C3)cc1OC [CAP1281]
inhibition at 200 µM [1, 4]: 64%

Cc1cc2c(C(C)C)c(O)c(O)c(C=O)c2c(O)c1-c1c(C)cc2c(C(C)C)c(O)c(O)c(C=O)c2c1O [CAP1356]
inhibition at 200 µM [1]: -46%

NC(=O)c1ncn([C@@H]2O[C@H](CO)[C@@H](O)[C@H]2O)n1 [CAP1380]
inhibition at 200 µM [1, 4]: 16%

COc1cc2cc(C(=O)O)[nH]c2cc1OC [CAP1447]
inhibition at 200 µM [1, 4]: 22%

O=c1c(O)c(-c2ccc(O)c(O)c2)oc2cc(O)cc(O)c12 [CAP1451]
inhibition at 200 µM [1, 4]: 35%

Oc1cc(O)c2c(c1)O[C@@H](c1ccc(O)c(O)c1)[C@@H](O)C2 [CAP1458]
inhibition at 200 µM [1, 4]: -17%

COc1cc(/C=C/C(=O)/C=C(O)/C=C/c2ccc(O)c(OC)c2)ccc1O [CAP1459]
inhibition at 200 µM [1, 4]: -95%

O=C(O[C@H]1Cc2c(O)cc(O)cc2O[C@H]1c1cc(O)c(O)c(O)c1)c1cc(O)c(O)c(O)c1 [CAP1460]
inhibition at 200 µM [1, 4]: 1%

CC(=O)Oc1cc2cc[nH]c2cc1OC(C)=O [CAP1517]
inhibition at 200 µM [1, 4]: 40%

COC(=O)[C@@H](NC(C)=O)c1ccc(OC(C)=O)c(OC(C)=O)c1 [CAP1518]
inhibition at 200 µM [1, 4]: -4%

COc1cc2cc[nH]c2cc1OC [CAP1519]
inhibition at 200 µM [1, 4]: 9%

Oc1cc(O)c2c(c1)O[C@H](c1ccc(O)c(O)c1)[C@H](O)C2 [CAP3032]
Percent protection (at 200 μM) [1, 4]: −16%

COc1cc2nc(N3CCN(C(=O)C4COc5ccccc5O4)CC3)nc(N)c2cc1OC (stereo not drawn) [CAP3035]
inhibition at 200 µM [1, 4]: 114%

O=C1O[C@H]([C@@H](O)CO)C(O)=C1O [CAP3037]
inhibition at 200 µM [1, 4]: -2%

COc1cc(/C=C/C(=O)CC(=O)/C=C/c2ccc(O)c(OC)c2)ccc1O [CAP3040]
inhibition at 200 µM [1, 4]: 4%

Oc1cc(O)c2c(c1)O[C@H](c1ccc(O)c(O)c1)[C@H](O)C2 [CAP3042]
Percent protection (at 200 μM) [1, 4]: −17%

O=C(O)/C=C/c1ccc(O)c(O)c1 [CAP3062]
inhibition at 200 µM [1, 4]: 16%

COc1ccc(/C=C/C(=O)O)cc1OC [CAP3064]
inhibition at 200 µM [1, 4]: 12%

CC(=O)/C=C/c1ccc(O)c(O)c1 [CAP3065]
inhibition at 200 µM [1, 4]: -32%

COc1ccc(/C=C/C(C)=O)cc1OC [CAP3066]
inhibition at 200 µM [1, 4]: 21%

CC(=O)c1cc(C)cc([N+](=O)[O-])c1O [CAP3071]
inhibition at 200 µM [1, 4]: 30%

COc1cc(C(=O)O)cc(OC)c1O [CAP3107]
inhibition at 200 µM [1, 4]: 7%

Nc1ccc(Cl)cc1C(=O)c1ccccc1Cl [CAP4126]
Cell-based [UV] (max % net protection) [2]: 0%

O=C(c1ccccc1)c1ccccc1 [CAP4127]
Cell-based [UV] (max % net protection) [2]: 55%
Cell-based [Heat] (max % net protection) ([3]; Table 5): 9%

Nc1ccc(C(=O)c2ccccc2)cc1 [CAP4128]
Cell-based [UV] (max % net protection) [2]: 23%

O=C(c1ccccc1)c1ccc([N+](=O)[O-])cc1 [CAP4131]
Cell-based [UV] (max % net protection) [2]: 0%

Nc1cc(S(=O)(=O)O)cc2cc(S(=O)(=O)O)cc(O)c12 [CAP4179]
Cell Heat % protection [3]: 29%

Nc1ccc2c(O)cc(S(=O)(=O)O)cc2c1 [CAP4180]
Cell Heat % protection [3]: 22%

O=S(=O)(O)c1cc(O)c2cc(Nc3ccccc3)ccc2c1 [CAP4183]
Cell Heat % protection [3]: 17%

O=S(=O)([O-])c1cc(O)c2cc(O)ccc2c1.[Na+] [CAP4186]
Cell Heat % protection [3]: 17%

Nc1ccc2cc(S(=O)(=O)[O-])cc(O)c2c1.[Na+] [CAP4187]
Cell Heat % protection [3]: 19%

Nc1c(O)cc(S(=O)(=O)O)c2ccccc12 [CAP4188]
Cell Heat % protection [3]: 2%

Nc1ccc2c(O)cc(S(=O)(=O)O)cc2c1 [CAP4190]
Cell Heat % protection [3]: 15%

COc1ccc(C(=O)c2ccc([N+](=O)[O-])cc2)cc1S(=O)(=O)NCc1ccccc1 [CAP4256]
Cell-based [UV] (max % net protection) [2]: 7%

COc1ccc(C(=O)c2ccc([N+](=O)[O-])cc2)cc1S(=O)(=O)NC1CCCCC1 [CAP4257]
Cell-based [UV] (max % net protection) [2]: 19%

CCc1onc2ccc(C(=O)c3ccccc3)cc12 [CAP4258]
Cell-based [UV] (max % net protection) [2]: 36%

Oc1cc2cc[nH]c2cc1O [CP1194]
inhibition at 200 µM [1, 4]: 25%
EC50 [1]: 1100 µM
